Reference: US8148428B2 (priority 2006, dated 2012)
Where two headings read alike, the source gives them in different places.

Key:
[1] = system: Lassa GP-pseudotyped-virus; assay: microbe, parasite or virus in culture; type: cell-based, Lassa fever virus; parameters: Activity against Lassa GP-pseudotyped-virus specificity: reference not given here
[2] = system: Lassa fever virus (Josiah strain); assay: organism not typed; type: cell-based; settings: for EC50: read-out: Activity vs. LFV EC50
[3] = system: Guanarito envelope pseudotyped virus; assay: organism not typed; type: cell-based; settings: read-out: EC50, pseudotyped viral infection, Guanarito envelope
[4] = system: Tacaribe envelope pseudotyped virus; assay: organism not typed; type: cell-based; settings: read-out: EC50, pseudotyped viral infection, Tacaribe envelope
[5] = Human immunodeficiency virus 1, read-out: Activity against Lassa GP-pseudotyped-virus EC50

| SMILES | Activity against Lassa GP-pseudotyped-virus specificity [1] | EC50 [1, 5] [µM] | also measured |
| --- | --- | --- | --- |
| C/C(=N\NC(=O)CCc1ccccc1)c1cccc(N)c1 [Compound 600090, 3-Phenyl-propionic acid [1-(3-amino-phenyl)-eth-(E)-ylidene]-hydrazide] | >18 | 1.6 | – |
| C/C(=N\NC(=O)C1CC1c1ccccc1)c1ccc(C2CCCCC2)cc1 (stereo not drawn) [Compound 600181, 2-Phenyl-cyclopropanecarboxylic acid [1-(4-cyclohexyl-phenyl)-eth-(E)-ylidene]-hydrazide] | >400 | 0.02 | – |
| C/C(=N\NC(=O)C1CC1c1ccccc1)C1CC1 (stereo not drawn) [Compound 600086, 2-Phenyl-cyclopropanecarboxylic acid [1-cyclopropyl-eth-(E)-ylidene]-hydrazide] | >2 | 10 | – |
| COc1ccc(/C(C)=N/NC(=O)C2CC2c2ccccc2)cc1OC (stereo not drawn) [Compound 600154, 2-Phenyl-cyctopropanecarboxylic acid [1-(3,4-dimethoxy-phenyl)-eth-(E)-ylidene]-hydrazide] | >50 | 0.2 | – |
| C/C(=N\NC(=O)C1CC1c1ccccc1)c1ccc(N(C)C)cc1 (stereo not drawn) [Compound 600178, 2-Phenyl-cyclopropanecarboxylic acid [1-(4-dimethylamino-phenyl)-eth-(E)-ylidene]-hydrazide] | >4000 | < 0.003 | – |
| C/C(=N\NC(=O)C1CC1c1ccccc1)c1ccc(-c2ccccc2)cc1 (stereo not drawn) [Compound 600152, 2-Phenyl-cyclopropanecarboxylic acid [1-biphenyl-4-yl-eth-(E)-ylidene]-hydrazide] | >8000 | 0.001 | – |
| C/C(=N\NC(=O)C1CC1c1ccccc1)c1ccc(NC(=O)c2ccc(Cl)s2)cc1 (stereo not drawn) [Compound 600183, 5-Chloro-thiophene-2-carboxylic acid (4-[1-[(2-phenyl-cyclopropanecarbonyl)-hydrazono]-ethyl]-phenyl)-amide] | >4000 | < 0.003 | – |
| O=C1Nc2ccc([N+](=O)[O-])cc2/C1=N/NC(=O)C1CC1c1ccccc1 (stereo not drawn) [Compound 600155, 2-Phenyl-cyclopropanecarboxylic acid [5-nitro-2-oxo-1,2-dihydro-indol-(3Z)-ylidene]-hydrazide] | >40 | 0.3 | – |
| COc1ccc(C(C)=NNC(=O)C2CC2c2ccccc2)cc1 (stereo in doubt) [Compound 600180, 2-Phenyl-cyclopropanecarboxylic acid [1-(4-methoxy-phenyl)-eth-(Z)-ylidene]-hydrazide] | >4000 | < 0.003 | – |
| COc1ccc(/C(C)=N\NC(=O)C2CC2c2ccc(C(C)(C)C)cc2)cc1[N+](=O)[O-] (stereo not drawn) [Compound 600198, 2-(4-tert-Butyl-phenyl)-cyclopropanecarboxylic acid [1-(4-methoxy-3-nitro-phenyl)-eth-(Z)-ylidene]-hydrazide] | >800 | 0.014 | – |
| CC(C)/C(=N\NC(=O)C1CC1c1ccccc1)c1ccccc1 (stereo not drawn) [Compound 600123] | 60 | – | EC50 ([1]; read-out: Activity against Lassa GP-pseudotyped-virus EC50): 0.2 µM |
| C/C(=N/NC(=O)C1CC1c1ccccc1)c1ccc(NC(=O)C(F)(F)F)cc1 (stereo not drawn) [Compound 600187, 2,2,2-Trifluoro-N-(4-[1-[(2-phenyl-cyclopropanecarbonyl)-hydrazono]-ethyl]-phenyl)-acetamide] | >4000 | 0.003 | – |
| C/C(=N/NC(=O)C1CC1c1ccccc1)c1ccccc1Cl (stereo not drawn) [Compound 600092, 2-Phenyl-cyclopropanecarboxylic acid [1-(2-chloro-phenyl)-eth-(Z)-ylidene]-hydrazide] | 20 | 0.2 | – |
| CC(=O)Nc1ccc(/C(C)=N/NC(=O)C2CC2c2ccccc2)cc1 (stereo not drawn) [Compound 600184, N-(4-[1-[(2-phenyl-cyclopropanecarbonyl)-hydrazono]-ethyl}-phenyl)-acetamide] | >3000 | 0.003 | – |
| C/C(=N\NC(=O)C1CC1c1ccccc1)c1ccccc1O (stereo not drawn) [Compound 600176, 2-Phenyl-cyclopropanecarboxylic acid [1-(2-hydroxy-phenyl)-eth-(E)-ylidene]-hydrazide] | >14 | 0.8 | – |
| CCOC(=O)C/C(C)=N/NC(=O)C1CC1c1ccccc1 (stereo not drawn) [Compound 600091, 3-[(2-Phenyl-cyclopropanecarbonyl)-hydrazono]-butyric acid ethyl ester] | >18 | 1.6 | – |
| C/C(=N/NC(=O)C1CC1c1ccccc1)c1ccc2c3c(cccc13)CC2 (stereo not drawn) [Compound 600156] | none | 2 | – |
| C/C(=N/NC(=O)C1CC1c1ccccc1)c1ccc(NC(=O)c2ccc(Cl)cc2Cl)cc1 (stereo not drawn) [Compound 600162, 2,4-Dichloro-N-(4-[1-[(2-Phenyl-cyclopropanecarbonyl)-hydrazono]ethyl]-phenyl)-benzamide] | >4000 | < 0.003 | – |
| O=C1Nc2ccccc2/C1=N\NC(=O)C1CC1c1ccccc1 (stereo not drawn) [Compound 600087, 2-Phenyl-cyclopropanecarboxylic acid [2-oxo-1,2-dihydro-indol-(3E)-ylidene]-hydrazide] | >700 | 0.04 | – |
| C/C(=N/NC(=O)C1CC1c1ccc(C(C)(C)C)cc1)c1cccc(NC(=O)c2ccccc2F)c1 (stereo not drawn) [Compound 600182, N-[3-(1-[[2-(4-tert-Butyl-phenyl)-cyclopropanecarbonyl]-hydrazono]-ethyl)-phenyl]-2-fluoro-benzamide] | >15 | 0.8 | – |
| Cc1ccc2c(c1Br)C(=NNC(=O)C1CC1c1ccccc1)C(=O)N2 (stereo not drawn) [Compound 600140, 2-Phenyl-cyclopropanecarboxylic acid [4-bromo-5-methyl-2-oxo-1,2-dihydro-indol-(3E)-ylidene]-hydrazide] | >30 | 0.3 | – |
| C/C(=N/NC(=O)C1CC1c1ccccc1)c1ccc(NC(=O)C2CC2)cc1 (stereo not drawn) [Compound 600100, Cyclopropanecarboxylic acid (4-[1-[(2-phenyl-cyclopropanecarbonyl)-hydrazono]-ethyl]-phenyl)-amide] | >20,000 | 0.002 | EC50 [2]: < 0.4 µM |
| C/C(=N/NC(=O)C1CC1c1ccccc1)c1cccs1 (stereo not drawn) [Compound 600093, 2-Phenyl-cyclopropartecarboxylic acid [1-thiophen-2-yl-eth-(Z)-ylidene]-hydrazide] | 2 | 14 | – |
| COc1ccc(/C(C)=N/NC(=O)C2CC2c2ccccc2)c(OC)c1 (stereo not drawn) [Compound 600120, 2-Phenyl-cyclopropanecarboxylic acid [1-(2,4-dimethoxy-phenyl)-eth-(E)-ylidene]-hydrazide] | 180 | 0.12 | – |
| C/C(=N\NC(=O)C1CC1c1ccccc1)c1ccc(NC(=O)c2ccco2)cc1 (stereo not drawn) [Compound 600161, Furan-2-carboxylic acid (4-[1-[(2-phenyl-cyclopropanecarbonyl)-hydrazono]-ethyl]-phenyl)-amide] | >90,000 | 0.0005 | Activity vs. LFV T.I. (therapeutic index) [2]: >2000; EC50 [2]: < 0.02 µM; EC50 [3]: 0.3 µM; EC50 [4]: 0.8 µM |
| C/C(=N\NC(=O)C1CC1c1ccccc1)c1ccc(N)cc1 (stereo not drawn) [Compound 408306, 2-Phenyl-cyclopropanecarboxylic acid [1-(4-amino-phenyl)-eth-(E)-ylidene]-hydrazide] | >2000 | 0.02 | Activity vs. LFV T.I. (therapeutic index) [2]: >100; EC50 [2]: 0.5 µM |
| O=C(N/N=C/c1ccccc1)[C@H]1C[C@@H]1c1ccccc1 [Compound 600075, (1S,2S)-2-Phenyl-cyclopropanecarboxylic acid [1-phenyl-meth-(E)-ylidene]-hydrazide] | – | > 30 | – |
| C/C(=N\NC(=O)C1CC1c1ccccc1)c1ccc(C)cc1 (stereo not drawn) [Compound 600124, 2-Phenyl-cyclopropanecarboxylic acid [1-p-tolyl-eth-(E)-ylidene]-hydrazide] | >700 | < 0.03 | – |
| C/C(=N/NC(=O)C1CC1c1ccc(C(C)(C)C)cc1)c1ccc(F)cc1 (stereo not drawn) [Compound 600197, 2-(4-tert-Butyl-phenyl)-cyclopropanecarboxylic acid [1-(4-fluoro-phenyl)-eth-(Z)-ylidene]-hydrazide] | 650 | 0.02 | – |
| C/C(=N\NC(=O)C1CC1c1ccccc1)c1cccc(NC(=O)c2ccccc2F)c1 (stereo not drawn) [Compound 600185] | >1.3 | 9 | – |
